Results reported in article PMC5513091, “A novel Alzheimer’s disease drug candidate targeting inflammation and fatty acid metabolism” (Alzheimer's Research & Therapy, 2017).

Tested on: cortex metabolites
Experiment: Metabolomic analysis of cortex
Type: in vivo, mice
Procedure: Metabolomic analyses were conducted at Metabolon (Durham, NC, USA) as described previously. For statistical analyses and data display, any missing values were assumed to be below the limits of detection and imputed with the compound minimum (minimum value imputation). An estimate of the FDR (Q value) was calculated to take into account the multiple comparisons that normally occur in metabolomics-based studies, with Q < 0.05 used as an indication of high confidence in a result. The MetaboAnalyst tool was used to generate heat maps.

For Cc1ccc(N(/N=C/c2cccc(OC(F)(F)F)c2)C(=O)C(F)(F)F)c(C)c1 [CAD-31], the monoacylglycerols in brain (AD mice, only significant drug effect) was “an increase in monoacylglycerols”, the “Long-chain fatty acids and monoacylglycerols in brain” value (WT mice) was “decreased” and the “acetyl-CoA, ketone bodies, and acyl carnitines in brain” value (WT mice) was “increased”. For the same molecule, the “ergothioneine Fold Change” value (cortex, AD+31/AD, p-value 8.4373e-5) was 0.57, the “N-acetylalanine Fold Change” value (cortex, AD+31/AD, p-value 0.0006) was 0.84 and the “glycerate Fold Change” value (cortex, AD+31/AD, p-value 0.0086) was 0.65. For the same molecule, the “2-oleoylglycerol (18:1) Fold Change” value (cortex, AD+31/AD, p-value 0.0105) was 1.51, the “1-palmitoylglycerol (16:0) Fold Change” value (cortex, AD+31/AD, p-value 0.0153) was 1.41 and the “2-methylcitrate/homocitrate Fold Change” value (cortex, AD+31/AD, p-value 0.0221) was 1.13. For the same molecule, the “hypoxanthine Fold Change” value (cortex, AD+31/AD, p-value 0.0231) was 0.89, the “N-acetylneuraminate Fold Change” value (cortex, AD+31/AD, p-value 0.0277) was 0.85 and the “2-palmitoylglycerol (16:0) Fold Change” value (cortex, AD+31/AD, p-value 0.031) was 1.57. For the same molecule, the “1-palmitoyl-GPG (16:0)* Fold Change” value (cortex, AD+31/AD, p-value 0.0317) was 1.85, the “azelate (nonanedioate) Fold Change” value (cortex, AD+31/AD, p-value 0.0374) was 0.73 and the “ribose Fold Change” value (cortex, AD+31/AD, p-value 0.0378) was 0.84. For the same molecule, the “arachidate (20:0) Fold Change” value (cortex, AD+31/AD, p-value 0.0406) was 1.47, the “N-delta-acetylornithine Fold Change” value (cortex, AD+31/AD, p-value 0.0407) was 1.32 and the “3-sulfo-nervonoyl-galactosylceramide (d18:1/24:1) Fold Change” value (cortex, AD+31/AD, p-value 0.0443) was 1.08. The “1-oleoylglycerol (18:1) Fold Change” value (cortex, AD+31/AD, p-value 0.0513) was 1.46, the “1-stearoyl-GPG (18:0) Fold Change” value (cortex, AD+31/AD, p-value 0.055) was 1.87 and the “N-acetylglutamate Fold Change” value (cortex, AD+31/AD, p-value 0.0559) was 0.92. For the same molecule, the “linoleoyl ethanolamide Fold Change” value (cortex, AD+31/AD, p-value 0.0645) was 1.62, the “N-acetylglucosaminylasparagine Fold Change” value (cortex, AD+31/AD, p-value 0.0691) was 0.92 and the “tricosenoate (23:1) Fold Change” value (cortex, AD+31/AD, p-value 0.0711) was 1.54. For the same molecule, the “2'-deoxycytidine Fold Change” value (cortex, AD+31/AD, p-value 0.088) was 0.85, the “nonadecanoate (19:0) Fold Change” value (cortex, AD+31/AD, p-value 0.0981) was 1.35 and the “palmitate (16:0) Fold Change” value (cortex, AD+31/AD, p-value 0.1021) was 1.36. For the same molecule, the “erucate (22:1n9) Fold Change” value (cortex, AD+31/AD, p-value 0.1047) was 1.44, the “5-methylthioadenosine (MTA) Fold Change” value (cortex, AD+31/AD, p-value 0.1124) was 1.12 and the “stearate (18:0) Fold Change” value (cortex, AD+31/AD, p-value 0.1164) was 1.35. For the same molecule, the “eicosenoate (20:1) Fold Change” value (cortex, AD+31/AD, p-value 0.1281) was 1.43, the “oleate/vaccenate (18:1) Fold Change” value (cortex, AD+31/AD, p-value 0.1397) was 1.39 and the “adrenate (22:4n6) Fold Change” value (cortex, AD+31/AD, p-value 0.1408) was 1.56. The “1-oleoyl-2-linoleoyl-GPC (18:1/18:2)* Fold Change” value (cortex, AD+31/AD, p-value 0.1443) was 1.12, the “glutamate, gamma-methyl ester Fold Change” value (cortex, AD+31/AD, p-value 0.157) was 0.73 and the “docosadienoate (22:2n6) Fold Change” value (cortex, AD+31/AD, p-value 0.1608) was 1.38. The “beta-citrylglutamate Fold Change” value (cortex, AD+31/AD, p-value 0.1678) was 1.19, the “methylphosphate Fold Change” value (cortex, AD+31/AD, p-value 0.1679) was 1.13 and the “pyroglutamine* Fold Change” value (cortex, AD+31/AD, p-value 0.1791) was 1.11. The “glycerophosphoglycerol Fold Change” value (cortex, AD+31/AD, p-value 0.1865) was 0.93, the “dihomo-linoleate (20:2n6) Fold Change” value (cortex, AD+31/AD, p-value 0.1892) was 1.35 and the “docosatrienoate (22:3n3) Fold Change” value (cortex, AD+31/AD, p-value 0.1893) was 1.69. For the same molecule, the “arabinose Fold Change” value (cortex, AD+31/AD, p-value 0.2015) was 0.93, the “UDP-glucose Fold Change” value (cortex, AD+31/AD, p-value 0.209) was 1.28 and the “UDP-N-acetylglucosamine/galactosamine Fold Change” value (cortex, AD+31/AD, p-value 0.2104) was 0.95. For the same molecule, the “1-palmitoyl-2-gamma-linolenoyl-GPC (16:0/18:3n6)* Fold Change” value (cortex, AD+31/AD, p-value 0.213) was 0.91, the “1-arachidonylglycerol (20:4) Fold Change” value (cortex, AD+31/AD, p-value 0.2257) was 1.2 and the “hippurate Fold Change” value (cortex, AD+31/AD, p-value 0.2339) was 1.5. For the same molecule, the “mead acid (20:3n9) Fold Change” value (cortex, AD+31/AD, p-value 0.2367) was 1.39, the “2-hydroxydecanoate Fold Change” value (cortex, AD+31/AD, p-value 0.2531) was 0.84 and the “glycerol 3-phosphate Fold Change” value (cortex, AD+31/AD, p-value 0.2532) was 0.91. For the same molecule, the “10-nonadecenoate (19:1n9) Fold Change” value (cortex, AD+31/AD, p-value 0.2636) was 1.26, the “methionine Fold Change” value (cortex, AD+31/AD, p-value 0.2665) was 1.1 and the “1-docosahexaenoylglycerol (22:6) Fold Change” value (cortex, AD+31/AD, p-value 0.2822) was 1.21. The “3-hydroxy-3-methylglutarate Fold Change” value (cortex, AD+31/AD, p-value 0.2908) was 0.95, the “anserine Fold Change” value (cortex, AD+31/AD, p-value 0.2924) was 1.14 and the “N-formylmethionine Fold Change” value (cortex, AD+31/AD, p-value 0.3078) was 0.94. The “3-hydroxybutyrylcarnitine (2) Fold Change” value (cortex, AD+31/AD, p-value 0.3124) was 1.37, the “acetylphosphate Fold Change” value (cortex, AD+31/AD, p-value 0.3359) was 0.91 and the “1-methylimidazoleacetate Fold Change” value (cortex, AD+31/AD, p-value 0.3448) was 0.9. The “N-acetylmethionine Fold Change” value (cortex, AD+31/AD, p-value 0.3576) was 0.96, the “arachidonoyl ethanolamide Fold Change” value (cortex, AD+31/AD, p-value 0.3632) was 1.06 and the “deoxycarnitine Fold Change” value (cortex, AD+31/AD, p-value 0.3877) was 0.94. For the same molecule, the “palmitoylcholine Fold Change” value (cortex, AD+31/AD, p-value 0.42) was 1.09, the “putrescine Fold Change” value (cortex, AD+31/AD, p-value 0.4207) was 1.08 and the “adenosine 5'-diphosphoribose (ADP-ribose) Fold Change” value (cortex, AD+31/AD, p-value 0.4258) was 0.94. The “margarate (17:0) Fold Change” value (cortex, AD+31/AD, p-value 0.4323) was 1.24, the “phenol sulfate Fold Change” value (cortex, AD+31/AD, p-value 0.4423) was 1.28 and the “acetylcarnitine Fold Change” value (cortex, AD+31/AD, p-value 0.4578) was 1.25. For the same molecule, the “lactate Fold Change” value (cortex, AD+31/AD, p-value 0.4961) was 1.08, the “acetyl CoA Fold Change” value (cortex, AD+31/AD, p-value 0.4998) was 1.33 and the “3-hydroxybutyrate (BHBA) Fold Change” value (cortex, AD+31/AD, p-value 0.5074) was 1.29. For the same molecule, the “2-hydroxystearate Fold Change” value (cortex, AD+31/AD, p-value 0.5156) was 1.2, the “gamma-glutamylhistidine Fold Change” value (cortex, AD+31/AD, p-value 0.5232) was 0.9 and the “gulonate* Fold Change” value (cortex, AD+31/AD, p-value 0.5547) was 0.96. The “1-oleoyl-2-arachidonoyl-GPI (18:1/20:4) * Fold Change” value (cortex, AD+31/AD, p-value 0.5635) was 1.02, the “6-phosphogluconate Fold Change” value (cortex, AD+31/AD, p-value 0.6142) was 0.86 and the “adenosine 2'-monophosphate (2'-AMP) Fold Change” value (cortex, AD+31/AD, p-value 0.6144) was 1.09. The “glucosamine-6-phosphate Fold Change” value (cortex, AD+31/AD, p-value 0.6542) was 1.06, the “1-palmitoyl-2-palmitoleoyl-GPC (16:0/16:1)* Fold Change” value (cortex, AD+31/AD, p-value 0.6549) was 0.98 and the “1-(1-enyl-stearoyl)-2-arachidonoyl-GPE (P-18:0/20:4)* Fold Change” value (cortex, AD+31/AD, p-value 0.6588) was 1.01. For the same molecule, the “mannose Fold Change” value (cortex, AD+31/AD, p-value 0.6613) was 0.9, the “UDP-galactose Fold Change” value (cortex, AD+31/AD, p-value 0.6737) was 1.03 and the “phosphoethanolamine Fold Change” value (cortex, AD+31/AD, p-value 0.6749) was 0.98. For the same molecule, the “sphingomyelin (d18:1/18:1, d18:2/18:0) Fold Change” value (cortex, AD+31/AD, p-value 0.6798) was 1.03, the “sedoheptulose-7-phosphate Fold Change” value (cortex, AD+31/AD, p-value 0.7025) was 0.98 and the “1-stearoyl-GPC (18:0) Fold Change” value (cortex, AD+31/AD, p-value 0.7211) was 0.94. The “1-palmitoyl-2-oleoyl-GPS (16:0/18:1) Fold Change” value (cortex, AD+31/AD, p-value 0.7273) was 1.01, the “glucose 6-phosphate Fold Change” value (cortex, AD+31/AD, p-value 0.7454) was 0.99 and the “prolylglycine Fold Change” value (cortex, AD+31/AD, p-value 0.7821) was 0.99. The “glycerophosphoethanolamine Fold Change” value (cortex, AD+31/AD, p-value 0.7927) was 1.02, the “succinylcarnitine Fold Change” value (cortex, AD+31/AD, p-value 0.8024) was 0.95 and the “glutamate Fold Change” value (cortex, AD+31/AD, p-value 0.8146) was 0.99. For the same molecule, the “N-acetyl-glucosamine 1-phosphate Fold Change” value (cortex, AD+31/AD, p-value 0.868) was 0.98, the “O-methyltyrosine Fold Change” value (cortex, AD+31/AD, p-value 0.8778) was 0.98 and the “galactose 1-phosphate Fold Change” value (cortex, AD+31/AD, p-value 0.8947) was 1.05. For the same molecule, the “17-methylstearate Fold Change” value (cortex, AD+31/AD, p-value 0.9061) was 1, the “1-stearoyl-2-oleoyl-GPI (18:0/18:1)* Fold Change” value (cortex, AD+31/AD, p-value 0.9089) was 1 and the “lysine Fold Change” value (cortex, AD+31/AD, p-value 0.9193) was 1. The “fructose-6-phosphate Fold Change” value (cortex, AD+31/AD, p-value 0.9322) was 1.01, the “coenzyme A Fold Change” value (cortex, AD+31/AD, p-value 0.937) was 1.03 and the “oleoyl-oleoyl-glycerol (18:1/18:1) [2]* Fold Change” value (cortex, AD+31/AD, p-value 0.9411) was 1.
